Measured values reported in ChEMBL document CHEMBL4765295, “Synthesis, pharmacological profile and 2D-QSAR studies of curcumin-amino acid conjugates as potential drug candidates” (Eur J Med Chem, 2020).
Where “and” joins values, the source holds several entries; their conditions need not be identical. Equal values may be shown once.

system: Mus musculus; test: Analgesic activity in albino mouse assessed as protection at 10 mg/kg, ip measured after 60 mins by hot plate test (reference value: 0 %); format: functional; settings: 1 h

SMILES	Activity [%]
COc1cc(/C=C/C(=O)/C=C(O)/C=C/c2ccc(OC(=O)C(C)NC(=O)OCc3ccccc3)c(OC)c2)ccc1OC(=O)C(C)NC(=O)OCc1ccccc1 (stereo not drawn)	53.2

system: Mus musculus; test: Analgesic activity in albino mouse assessed protection against acetic acid-induced abdominal writhing at 10 mg/kg, ip pretreated for 1 hr followed by acetic acid challenge and measured starting 5 mins post acetic acid challenge for 10 mins relative to control (reference value: 0 %); format: functional; settings: time 75 min, 1.25 h

SMILES	Activity [%]
COc1cc(/C=C/C(=O)/C=C(O)/C=C/c2ccc(OC(=O)C(C)NC(=O)OCc3ccccc3)c(OC)c2)ccc1OC(=O)C(C)NC(=O)OCc1ccccc1 (stereo not drawn)	53.4

system: not listed separately; test: Toxicity in albino mouse assessed as induction of toxic symptoms at 50 to 100 mg/kg, ip measured after 24 hrs; format: organism-based; settings: in vivo, dose 50-100 mg/kg

SMILES	Activity
COc1cc(/C=C/C(=O)/C=C(O)/C=C/c2ccc(OC(=O)C(C)NC(=O)OCc3ccccc3)c(OC)c2)ccc1OC(=O)C(C)NC(=O)OCc1ccccc1 (stereo not drawn)	Non-Toxic

system: Peritoneal macrophage; test: Antiinflammatory activity in […] mouse Peritoneal macrophages assessed as reduction in LPS-induced NO production by measuring reduction in stimulation index at 10 uM preincubated for 1 hr followed by LPS stimulation measured after 24 hrs by Griess method (reference value: 27.31 +/- 2.56 uM); format: functional; settings: time 25 hrs

SMILES	Activity [µM]
COc1cc(/C=C/C(=O)/C=C(O)/C=C/c2ccc(OC(=O)C(C)NC(=O)OCc3ccccc3)c(OC)c2)ccc1OC(=O)C(C)NC(=O)OCc1ccccc1 (stereo not drawn)	14.91

system: not listed separately; test: Ulcerogenic activity in fasted albino mouse assessed as average severity of ulcers in gastric mucosa at 10 mg/kg, po for 3 days (reference value: 0); format: toxicity, organism-based; settings: in vivo, 72 h, time 3 day

SMILES	Activity
COc1cc(/C=C/C(=O)/C=C(O)/C=C/c2ccc(OC(=O)C(C)NC(=O)OCc3ccccc3)c(OC)c2)ccc1OC(=O)C(C)NC(=O)OCc1ccccc1 (stereo not drawn)	0.67

system: Rattus norvegicus; test: Antiinflammatory activity in Wistar rat model of carrageenan-induced paw edema assessed as reduction in thickness of paw edema at 10 mg/kg, ip pretreated for 1 hr followed by carrageenan challenge and measured after 1 hr (reference value: 2.41 +/-0.05 mm); format: functional; settings: time 1 hr after carrageenan

SMILES	Activity [mm]
COc1cc(/C=C/C(=O)/C=C(O)/C=C/c2ccc(OC(=O)C(C)NC(=O)OCc3ccccc3)c(OC)c2)ccc1OC(=O)C(C)NC(=O)OCc1ccccc1 (stereo not drawn)	0.67

system: Mus musculus; test: Analgesic activity in albino mouse assessed reduction in acetic acid-induced abdominal writhing by measuring writing reflex at 10 mg/kg, ip pretreated for 1 hr followed by acetic acid challenge and measured starting 5 mins post acetic acid challenge for 10 mins (reference value: 42.4 +/- 1.02); format: functional; settings: time 75 min, 1.25 h

SMILES	Activity
COc1cc(/C=C/C(=O)/C=C(O)/C=C/c2ccc(OC(=O)C(C)NC(=O)OCc3ccccc3)c(OC)c2)ccc1OC(=O)C(C)NC(=O)OCc1ccccc1 (stereo not drawn)	19.75

system: not listed separately; test: Ulcerogenic activity in fasted albino mouse assessed as incidence of gastric ulceration at 10 mg/kg, po for 3 days (reference value: 0 %); format: toxicity, organism-based; settings: in vivo, 72 h, time 3 day

SMILES	Activity [%]
COc1cc(/C=C/C(=O)/C=C(O)/C=C/c2ccc(OC(=O)C(C)NC(=O)OCc3ccccc3)c(OC)c2)ccc1OC(=O)C(C)NC(=O)OCc1ccccc1 (stereo not drawn)	3.33

system: Candida albicans; test: Antifungal activity against Candida albicans incubated for 18 to 24 hrs by CLSI method; format: functional; settings: time 18-24 hrs

MIC	SMILES
0.5 µg/mL and 0.642 µM	COc1cc(/C=C/C(=O)/C=C(O)/C=C/c2ccc(OC(=O)C(C)NC(=O)OCc3ccccc3)c(OC)c2)ccc1OC(=O)C(C)NC(=O)OCc1ccccc1 (stereo not drawn)

system: Mus musculus; test: Analgesic activity in albino mouse assessed as protection at 10 mg/kg, ip measured after 120 mins by hot plate test (reference value: 0 %); format: functional; settings: 2 h

SMILES	Activity [%]
COc1cc(/C=C/C(=O)/C=C(O)/C=C/c2ccc(OC(=O)C(C)NC(=O)OCc3ccccc3)c(OC)c2)ccc1OC(=O)C(C)NC(=O)OCc1ccccc1 (stereo not drawn)	19.1

system: Pseudomonas aeruginosa; test: Antibacterial activity against Pseudomonas aeruginosa ATCC 27853 incubated for 18 hrs by agar dilution assay; format: functional; settings: not given

MIC	SMILES
0.25 µg/mL and 0.321 µM	COc1cc(/C=C/C(=O)/C=C(O)/C=C/c2ccc(OC(=O)C(C)NC(=O)OCc3ccccc3)c(OC)c2)ccc1OC(=O)C(C)NC(=O)OCc1ccccc1 (stereo not drawn)

system: Rattus norvegicus; test: Antiinflammatory activity in Wistar rat model of carrageenan-induced paw edema assessed as reduction in thickness of paw edema at 10 mg/kg, ip pretreated for 1 hr followed by carrageenan challenge and measured after 3 hrs (reference value: 1.79 +/-0.07 mm); format: functional; settings: time 4 hrs

SMILES	Activity [mm]
COc1cc(/C=C/C(=O)/C=C(O)/C=C/c2ccc(OC(=O)C(C)NC(=O)OCc3ccccc3)c(OC)c2)ccc1OC(=O)C(C)NC(=O)OCc1ccccc1 (stereo not drawn)	0.05

system: Mus musculus; test: Analgesic activity in albino mouse assessed as forepaw licking/jumping latency time at 10 mg/kg, ip measured after 60 mins by hot plate test (reference value: 3.42 +/- 0.03 sec); format: functional; settings: 1 h

SMILES	Time [s]
COc1cc(/C=C/C(=O)/C=C(O)/C=C/c2ccc(OC(=O)C(C)NC(=O)OCc3ccccc3)c(OC)c2)ccc1OC(=O)C(C)NC(=O)OCc1ccccc1 (stereo not drawn)	5.24

system: Mus musculus; test: Analgesic activity in albino mouse assessed protection against acetic acid-induced abdominal writhing at 10 mg/kg, ip pretreated for 1 hr followed by acetic acid challenge and measured starting 5 mins post acetic acid challenge for 10 mins relative to indomethacin; format: functional; settings: time 75 min, 1.25 h

SMILES	Activity [%]
COc1cc(/C=C/C(=O)/C=C(O)/C=C/c2ccc(OC(=O)C(C)NC(=O)OCc3ccccc3)c(OC)c2)ccc1OC(=O)C(C)NC(=O)OCc1ccccc1 (stereo not drawn)	86.7

system: not listed separately; test: Ulcerogenic activity in fasted albino mouse assessed as average number of ulcers in gastric mucosa at 10 mg/kg, po for 3 days (reference value: 0); format: toxicity, organism-based; settings: in vivo, 72 h, time 3 day

SMILES	Activity
COc1cc(/C=C/C(=O)/C=C(O)/C=C/c2ccc(OC(=O)C(C)NC(=O)OCc3ccccc3)c(OC)c2)ccc1OC(=O)C(C)NC(=O)OCc1ccccc1 (stereo not drawn)	0.67

system: Peritoneal macrophage; test: Antiinflammatory activity in […] mouse Peritoneal macrophages assessed as inhibition of LPS-induced NO production at 10 uM preincubated for 1 hr followed by LPS stimulation measured after 24 hrs by Griess method relative to control (reference value: 0.0 %); format: functional; set-up: scale not given: the % may be the effect or the level left; settings: time 25 hrs

SMILES	Activity [%]
COc1cc(/C=C/C(=O)/C=C(O)/C=C/c2ccc(OC(=O)C(C)NC(=O)OCc3ccccc3)c(OC)c2)ccc1OC(=O)C(C)NC(=O)OCc1ccccc1 (stereo not drawn)	45.41

system: Rattus norvegicus; test: Anti-inflammatory activity in Wistar rat assessed as inhibition of carrageenan-induced paw edema at 10 mg/kg, ip pretreated for 1 hr followed by carrageenan challenge and measured after 4 hr relative to control (reference value: 0.00 +/-0.4 %); format: functional; settings: time 5 hrs

SMILES	inhibition in vivo at 10 mg/kg [%]
COc1cc(/C=C/C(=O)/C=C(O)/C=C/c2ccc(OC(=O)C(C)NC(=O)OCc3ccccc3)c(OC)c2)ccc1OC(=O)C(C)NC(=O)OCc1ccccc1 (stereo not drawn)	100

system: Rattus norvegicus; test: Anti-inflammatory activity in Wistar rat assessed as inhibition of carrageenan-induced paw edema at 10 mg/kg, ip pretreated for 1 hr followed by carrageenan challenge and measured after 2 hr relative to control (reference value: 0.00 +/-0.03 %); format: functional; settings: time 3 hrs

SMILES	inhibition in vivo at 10 mg/kg [%]
COc1cc(/C=C/C(=O)/C=C(O)/C=C/c2ccc(OC(=O)C(C)NC(=O)OCc3ccccc3)c(OC)c2)ccc1OC(=O)C(C)NC(=O)OCc1ccccc1 (stereo not drawn)	87
